Results published in article PMC11052790 (Clinical Pharmacokinetics, 2024).
Marks after values point to notes of the source that are not given here.

What was measured:
[1] = tested on: CYP3A4; assay: CYP3A4 activity time course with microdosed oral midazolam
[2] = Ritonavir plasma exposure during 5-day 100 mg bid therapy; type: in vivo, human
[3] = healthy volunteers, 6 days of high-dose ritonavir 600 mg bid; cited from earlier work
[4] = fifth day of ritonavir 100 mg bid vs before ritonavir; 8 healthy volunteers
[5] = with ketoconazole vs alone, previous trial EudraCT 2017-004453; cited from earlier work
[6] = target: CYP2C19 (Homo sapiens, UniProt P33261); conditions: after ritonavir discontinuation vs baseline
Chain of CYP2C19 (P33261 whole entry): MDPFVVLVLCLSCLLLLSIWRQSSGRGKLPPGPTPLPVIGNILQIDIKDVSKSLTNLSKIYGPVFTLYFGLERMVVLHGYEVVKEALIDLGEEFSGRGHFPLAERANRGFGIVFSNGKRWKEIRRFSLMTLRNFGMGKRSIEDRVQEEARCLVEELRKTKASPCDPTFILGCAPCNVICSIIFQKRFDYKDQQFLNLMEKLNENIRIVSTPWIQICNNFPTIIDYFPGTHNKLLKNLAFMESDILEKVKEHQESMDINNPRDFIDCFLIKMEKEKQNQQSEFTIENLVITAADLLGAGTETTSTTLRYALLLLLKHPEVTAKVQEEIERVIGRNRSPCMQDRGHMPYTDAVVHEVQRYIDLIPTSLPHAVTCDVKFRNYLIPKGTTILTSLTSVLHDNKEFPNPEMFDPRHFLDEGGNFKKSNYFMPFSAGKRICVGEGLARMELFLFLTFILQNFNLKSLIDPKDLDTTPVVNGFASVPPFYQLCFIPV

CC(C)c1nc(CN(C)C(=O)N[C@H](C(=O)N[C@@H](Cc2ccccc2)C[C@H](O)[C@H](Cc2ccccc2)NC(=O)OCc2cncs2)C(C)C)cs1 [ritonavir]
Estimated time to full recovery of CYP3A4 activity ([1]; after a 5-day treatment course with ritonavir 100 mg bid): 10 to 12 days
AUC(0-t) ([2]; human, plasma, oral, 100 mg): 4590 to 5330 ng·h/mL
Cmax ([2]; human, plasma, oral, 100 mg, Cmax of ritonavir, remaining 4 days of 100 mg bid): 1780 to 2110 ng/mL
Ritonavir plasma concentrations ([2]; two days after the last ritonavir dose, LLOQ 10 ng/mL): close to or below the LLOQ

O=C(NC[C@H]1CN(c2ccc(N3CCOCC3=O)cc2)C(=O)O1)c1ccc(Cl)s1 [Rivaroxaban, rivaroxaban]
Exposure (AUC) increase of rivaroxaban [3]: 2.5 fold
Geometric mean ratio (GMR) AUC0–24 [4]: 1.87*
AUCinf ratio [5]: 2.37 ± 0.53

Cc1ncc2n1-c1ccc(Cl)cc1C(c1ccccc1F)=NC2 [Midazolam, midazolam]
Midazolam AUC2–4 increase, times baseline values ([1]; from day 2 to day 5 of ritonavir treatment): 11.1–15.5 times baseline

COc1ccc2[nH]c([S+]([O-])Cc3ncc(C)c(OC)c3C)nc2c1 (stereo not drawn) [Omeprazole, omeprazole]
Decrease of omeprazole AUC0–4 [6]: approximately 35%
